Data taken from ChEMBL document CHEMBL3244094, “Nonenolizable podophyllotoxin derivatives” (1977).
Calls of active or inactive are those of the source. The calls are words filed in the database; no cut-off is given here.

Assays:
Gallus gallus [1] = species: Gallus gallus; experiment: Competitive binding affinity to tubulin in chick embryo brain by radioactive colchicine displacement assay; type: tissue-based
Gallus gallus [2] = species: Gallus gallus; experiment: Inhibition of tubulin in chick brain assessed as concentration required to inhibit microtubule formation by 50%
P815 = experiment: Cytotoxicity against mouse P815 cells assessed as concentration required to produce 50% arrest of mitotic activity; type: functional
L5178Y = experiment: Cytotoxicity against mouse L5178Y cells assessed as concentration required to produce 50% inhibition of cell count in suspension of growing cells; type: functional
TA3 [3] = experiment: Cytotoxicity against mouse TA3 cells assessed as concentration required to produce 50% decrease in protein production; type: functional
TLX-5 = experiment: Anticancer activity against mouse TLX5 cells allografted in mouse; type: functional, cell-based
TA3 [4] = experiment: Anticancer activity against mouse TA3 cells allografted in mouse; type: functional, cell-based
Gallus gallus [5] = species: Gallus gallus; experiment: Inhibition of tubulin in chick brain assessed as concentration required to inhibit microtubule formation by 50% relative to podophyllotoxin; details: concentration not given here
L1210 = experiment: Anticancer activity against mouse L1210 cells allografted in mouse; type: functional, cell-based
Gallus gallus [6] = species: Gallus gallus; experiment: Competitive binding affinity to tubulin in chick embryo brain by radioactive colchicine displacement assay relative to podophyllotoxin
[7] = In vivo inhibition of microtubule assembly in Stentor coeruleus assessed as minimum concentration required to delay regeneration of ciliated oral apparatus by […] analysis; type: functional
[8] = In vivo inhibition of microtubule assembly in Stentor coeruleus assessed as minimum concentration required to delay regeneration of ciliated oral apparatus by […] analysis relative to podophyllotoxin; type: functional
Caelifera = experiment: Competitive binding affinity to tubulin in grasshopper embryo by radioactive colchicine displacement assay

SMILES	Activity (Gallus gallus [1])	Activity (Gallus gallus [2]) [×10⁻⁷ M]	Activity (P815) [×10⁻⁷ M]	Activity (L5178Y) [×10⁻⁷ M]	Activity (TA3 [3]) [×10⁻⁷ M]	KA (Gallus gallus [1]) [×10⁶ L/mol]	Activity (TLX-5)	Activity (TA3 [4])	inhibition (Gallus gallus [5]) [%]	Activity (L1210)	Activity (Gallus gallus [6]) [%]	MEC [7] [µM]	inhibition (INH) [8] [%]	KA (Caelifera) [×10⁶ L/mol]
COc1cc([C@H]2c3cc4c(cc3C[C@H]3CS(=O)(=O)C[C@@H]32)OCO4)cc(OC)c1OC	Active	> 500	69	139	>100									
COc1cc([C@H]2c3cc4c(cc3C[C@H]3COC[C@@H]32)OCO4)cc(OC)c1OC		8	0.52	1.4	6	0.4	inactive	inactive	75	inactive	20			
COc1cc([C@H]2c3cc4c(cc3C[C@H]3CCC[C@@H]32)OCO4)cc(OC)c1OC		50	6.5	16	50	0.02								
COc1cc([C@H]2c3cc4c(cc3[C@@H](O)[C@H]3COC[C@H]23)OCO4)cc(OC)c1OC		10	0.59	1.3	6	0.2	inactive	inactive	60	inactive	13	20	20	
COc1cc([C@H]2c3cc4c(cc3C[C@H]3COC(=O)[C@H]32)OCO4)cc(OC)c1OC [ISOPICRODEOXYPODOPHYLLOTOXIN]			1.3											
COc1cc([C@H]2c3cc4c(cc3C[C@H]3COC(=O)[C@@H]32)OCO4)cc(OC)c1OC			0.05			2								
COc1cc([C@H]2c3cc4c(cc3[C@@H](O)[C@H]3CS(=O)(=O)C[C@H]23)OCO4)cc(OC)c1OC	Active	> 1000	>220	>220	>100									
COc1cc([C@H]2c3cc4c(cc3C[C@H]3CC(=O)C[C@@H]32)OCO4)cc(OC)c1OC		50	1	15	15	0.02								
COc1cc([C@H]2c3cc4c(cc3[C@@H](O)[C@H]3COC(=O)[C@@H]23)OCO4)cc(OC)c1OC			1.9											0.037
COc1cc([C@H]2c3cc4c(cc3[C@@H](O)[C@H]3COC(=O)[C@H]23)OCO4)cc(OC)c1OC		6	0.12	0.14	3	2	inactive	inactive		inactive		4		
COc1cc([C@H]2c3cc4c(cc3C[C@H]3CSC[C@@H]32)OCO4)cc(OC)c1OC	Active	100	6	15	50									
COc1cc([C@H]2c3cc4c(cc3[C@@H](O)[C@H]3CSC[C@H]23)OCO4)cc(OC)c1OC	Active	100	4.3	14	60									
